Laboratory results from PubChem BioAssay AID1963973 (Molecular Pharmacology Branch, DTP, NCI, 2024).
Where “and” joins values, the source holds several entries; their conditions need not be identical. Equal entries are not always repeated. One block for each compound: values may come before it.

Test system: 883617-216-R-J1-PDC tumor spheroids, viability
Test: Anticancer human tumor 883617-216-R-J1-PDC patient-derived bladder carcinoma cell line growth inhibition [PI3K]
Details: spheroids with HUVEC and MSC; for viability, T/C: stronger effect = lower value
In short: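 Viability of mixed-cell spheroids was determined after exposure to pairwise combinations, one partner being inavolisib, alpelisib, duvelisib or copanlisib. Highest tested concentration matched clinical Cmax where known and 10 microM where not, descending in half-log steps.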

[1] = curve of first compound, second compound 0.0316 µM
[2] = curve of first compound, second compound 0.1 µM
[3] = curve of first compound, second compound 0.316 µM
[4] = curve of first compound, second compound 1 µM
[5] = second compound 0.0316 µM, first compound 0.0316 µM
[6] = second compound 0.0316 µM, first compound 0.1 µM
[7] = second compound 0.0316 µM, first compound 0.316 µM
[8] = second compound 0.0316 µM, first compound 1 µM
[9] = second compound 0.0316 µM, first compound 3.16 µM
[10] = second compound 0.0316 µM, first compound 10 µM
[11] = second compound 0.1 µM, first compound 0.0316 µM
[12] = second compound 0.1 µM, first compound 0.1 µM
[13] = second compound 0.1 µM, first compound 0.316 µM
[14] = second compound 0.1 µM, first compound 1 µM
[15] = second compound 0.1 µM, first compound 3.16 µM
[16] = second compound 0.1 µM, first compound 10 µM
[17] = second compound 0.316 µM, first compound 0.0316 µM
[18] = second compound 0.316 µM, first compound 0.1 µM
[19] = second compound 0.316 µM, first compound 0.316 µM
[20] = second compound 0.316 µM, first compound 1 µM
[21] = second compound 0.316 µM, first compound 3.16 µM
[22] = second compound 0.316 µM, first compound 10 µM
[23] = second compound 1 µM, first compound 0.0316 µM
[24] = second compound 1 µM, first compound 0.1 µM
[25] = second compound 1 µM, first compound 0.316 µM
[26] = second compound 1 µM, first compound 1 µM
[27] = second compound 1 µM, first compound 3.16 µM
[28] = second compound 1 µM, first compound 10 µM
[29] = curve of first compound, second compound 0.00316 µM
[30] = curve of first compound, second compound 0.01 µM
[31] = second compound 0.00316 µM, first compound 0.0316 µM
[32] = second compound 0.00316 µM, first compound 0.1 µM
[33] = second compound 0.00316 µM, first compound 0.316 µM
[34] = second compound 0.00316 µM, first compound 1 µM
[35] = second compound 0.00316 µM, first compound 3.16 µM
[36] = second compound 0.00316 µM, first compound 10 µM
[37] = second compound 0.01 µM, first compound 0.0316 µM
[38] = second compound 0.01 µM, first compound 0.1 µM
[39] = second compound 0.01 µM, first compound 0.316 µM
[40] = second compound 0.01 µM, first compound 1 µM
[41] = second compound 0.01 µM, first compound 3.16 µM
[42] = second compound 0.01 µM, first compound 10 µM
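Further: spheroids exposed to agents for 7 days before the viability read.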

IC50 [1]: 518 nM
IC50 [2]: 443 nM
IC50 [3]: 539 nM
IC50 [4]: 394 nM
IC50 (curve of first compound, second compound 3.16 µM): 257 nM
IC50 (curve of first compound, second compound 10 µM): < 31.6 nM
Compound: Cn1ncc(Cl)c1-c1cc(C(=O)NC(CN)Cc2cccc(F)c2)sc1Cl (stereo not given) + CC(Nc1ncnc2nc[nH]c12)c1cc2cccc(Cl)c2c(=O)n1-c1ccccc1
viability, T/C [5]: 90.3%
viability, T/C [6]: 88.7%
viability, T/C [7]: 58.2%
viability, T/C [8]: 36%
viability, T/C [9]: 13.7%
viability, T/C [10]: 6.6%
viability, T/C [11]: 74.9%
viability, T/C [12]: 83.1%
viability, T/C [13]: 55.2%
viability, T/C [14]: 30.2%
viability, T/C [15]: 12.4%
viability, T/C [16]: 6.85%
viability, T/C [17]: 89%
viability, T/C [18]: 89%
viability, T/C [19]: 63.1%
viability, T/C [20]: 33.9%
viability, T/C [21]: 10.6%
viability, T/C [22]: 7.26%
viability, T/C [23]: 84.4%
viability, T/C [24]: 67.1%
viability, T/C [25]: 57.9%
viability, T/C [26]: 31.8%
viability, T/C [27]: 11.7%
viability, T/C [28]: 6.93%
viability, T/C (second compound 3.16 µM, first compound 0.0316 µM): 86.4%
viability, T/C (second compound 3.16 µM, first compound 0.1 µM): 70.1%
viability, T/C (second compound 3.16 µM, first compound 0.316 µM): 44.6%
viability, T/C (second compound 3.16 µM, first compound 1 µM): 25.6%
viability, T/C (second compound 3.16 µM, first compound 3.16 µM): 13.2%
viability, T/C (second compound 3.16 µM, first compound 10 µM): 5.57%
viability, T/C (second compound 10 µM, first compound 0.0316 µM): 50.3%
viability, T/C (second compound 10 µM, first compound 0.1 µM): 40.3%
viability, T/C (second compound 10 µM, first compound 0.316 µM): 37.1%
viability, T/C (second compound 10 µM, first compound 1 µM): 23%
viability, T/C (second compound 10 µM, first compound 3.16 µM): 10.5%
viability, T/C (second compound 10 µM, first compound 10 µM): 5.07%

IC50 [29]: 453 nM
IC50 [30]: 520 nM
IC50 [1]: 254 nM
IC50 [2]: 76.6 nM
IC50 [3]: < 31.6 nM
IC50 [4]: < 31.6 nM
Compound: CC(C)NCC(C(=O)N1CCN(c2ncnc3c2C(C)CC3O)CC1)c1ccc(Cl)cc1 (stereo not given) + CC(Nc1ccc2c(c1)OCCn1cc(N3C(=O)OCC3C(F)F)nc1-2)C(N)=O
viability, T/C [31]: 83.7%
viability, T/C [32]: 81.7%
viability, T/C [33]: 57.4%
viability, T/C [34]: 30.3%
viability, T/C [35]: 15.1%
viability, T/C [36]: 6.47%
viability, T/C [37]: 74.1%
viability, T/C [38]: 79.9%
viability, T/C [39]: 64%
viability, T/C [40]: 30.3%
viability, T/C [41]: 14.8%
viability, T/C [42]: 5.88%
viability, T/C [5]: 73.8%
viability, T/C [6]: 62%
viability, T/C [7]: 48.1%
viability, T/C [8]: 27.1%
viability, T/C [9]: 12.8%
viability, T/C [10]: 6.19%
viability, T/C [11]: 87.1%
viability, T/C [12]: 32.9%
viability, T/C [13]: 27.9%
viability, T/C [14]: 19.2%
viability, T/C [15]: 10.1%
viability, T/C [16]: 5.7%
viability, T/C [17]: 27.5%
viability, T/C [18]: 26.4%
viability, T/C [19]: 20.7%
viability, T/C [20]: 13.2%
viability, T/C [21]: 7.79%
viability, T/C [22]: 4.52%
viability, T/C [23]: 14.9%
viability, T/C [24]: 21.9%
viability, T/C [25]: 15.7%
viability, T/C [26]: 10.1%
viability, T/C [27]: 10.1%
viability, T/C [28]: 3.3%

IC50 (curve of compound): > 10000 nM and 8220 nM
Compound: Cn1nccc1Nc1nccc(-c2ccn(C(CO)c3ccc(Cl)c(F)c3)c(=O)c2)n1 (stereo not given)
viability, T/C (compound 0.0316 µM): 93.7% [middle of 4 runs]
viability, T/C (compound 0.1 µM): 86.5% [middle of 4 runs]
viability, T/C (compound 0.316 µM): 87.2% [middle of 4 runs]
viability, T/C (compound 1 µM): 79.5% [middle of 4 runs]
viability, T/C (compound 3.16 µM): 65.8% [middle of 4 runs]
viability, T/C (compound 10 µM): 58.5% [middle of 4 runs]

IC50 [29]: > 10000 nM
IC50 [30]: > 10000 nM
IC50 [1]: 6340 nM
IC50 [2]: 366 nM
IC50 [3]: < 31.6 nM
IC50 [4]: < 31.6 nM
Compound: C[C@@H](NC(=O)c1ncnc(N)c1Cl)c1ncc(C(=O)Nc2cc(C(F)(F)F)c(Cl)cn2)s1 + CC(Nc1ccc2c(c1)OCCn1cc(N3C(=O)OCC3C(F)F)nc1-2)C(N)=O
viability, T/C [31]: 86.3%
viability, T/C [32]: 78.3%
viability, T/C [33]: 88.9%
viability, T/C [34]: 99.8%
viability, T/C [35]: 80%
viability, T/C [36]: 70.8%
viability, T/C [37]: 81.2%
viability, T/C [38]: 89.4%
viability, T/C [39]: 74.6%
viability, T/C [40]: 86.2%
viability, T/C [41]: 70.6%
viability, T/C [42]: 63.6%
viability, T/C [5]: 72.2%
viability, T/C [6]: 73.6%
viability, T/C [7]: 65.3%
viability, T/C [8]: 58.8%
viability, T/C [9]: 55.4%
viability, T/C [10]: 47.1%
viability, T/C [11]: 42.4%
viability, T/C [12]: 49.2%
viability, T/C [13]: 61.8%
viability, T/C [14]: 42.3%
viability, T/C [15]: 36.7%
viability, T/C [16]: 32.3%
viability, T/C [17]: 26.1%
viability, T/C [18]: 22.4%
viability, T/C [19]: 26.1%
viability, T/C [20]: 27.4%
viability, T/C [21]: 27.7%
viability, T/C [22]: 17.9%
viability, T/C [23]: 18.2%
viability, T/C [24]: 15.2%
viability, T/C [25]: 16.3%
viability, T/C [26]: 16.9%
viability, T/C [27]: 16.6%
viability, T/C [28]: 12.5%

IC50 [29]: 4590 nM
IC50 [30]: 4710 nM
IC50 [1]: 4240 nM
IC50 [2]: < 31.6 nM
IC50 [3]: < 31.6 nM
IC50 [4]: < 31.6 nM
Compound: CCCS(=O)(=O)Nc1ccc(F)c(C(=O)c2c[nH]c3ncc(-c4ccc(Cl)cc4)cc23)c1F + CC(Nc1ccc2c(c1)OCCn1cc(N3C(=O)OCC3C(F)F)nc1-2)C(N)=O
viability, T/C [31]: 91.2%
viability, T/C [32]: 90.9%
viability, T/C [33]: 89%
viability, T/C [34]: 100%
viability, T/C [35]: 70.2%
viability, T/C [36]: 8.07%
viability, T/C [37]: 87.3%
viability, T/C [38]: 90%
viability, T/C [39]: 89.5%
viability, T/C [40]: 93.9%
viability, T/C [41]: 70.3%
viability, T/C [42]: 11.9%
viability, T/C [5]: 68.5%
viability, T/C [6]: 64.3%
viability, T/C [7]: 64.4%
viability, T/C [8]: 66.8%
viability, T/C [9]: 63.7%
viability, T/C [10]: 9.98%
viability, T/C [11]: 36.1%
viability, T/C [12]: 42.6%
viability, T/C [13]: 43.9%
viability, T/C [14]: 48.2%
viability, T/C [15]: 38.7%
viability, T/C [16]: 12.2%
viability, T/C [17]: 29%
viability, T/C [18]: 23.8%
viability, T/C [19]: 28.5%
viability, T/C [20]: 28.2%
viability, T/C [21]: 26.6%
viability, T/C [22]: 11%
viability, T/C [23]: 15.2%
viability, T/C [24]: 15%
viability, T/C [25]: 17%
viability, T/C [26]: 23%
viability, T/C [27]: 20.7%
viability, T/C [28]: 8.33%
